We go through 1 compound from US20020091265A1, “4-phenyl-pyridine derivatives” (priority 1999, published 2002).

Series [1] in a line: Pharmacokinetic parameters in rats. Conditions: rat, in vivo.
A short description of series [2]: in vivo. To be noted: dog.
Text: The pharmacokinetic parameters have been evaluated in both rats and dogs.
Series [3] relates to foot-tapping behaviour induced in gerbils with an NK1 receptor agonist. As to the kind of experiment: Foot-tapping behaviour induced by i.c.v. NK1 receptor agonist. The series is classed as in vivo, gerbil. As to the method:
In vivo the compound of formula Ia antagonises foot-tapping behaviour induced in gerbils with intracerebroventricular (i.c.v.) injections of an NK1 receptor agonist. The dose for this compound calculated to inhibit 50% of the foot-tapping behaviour following oral administration was 0.2 mg/kg.
In vivo 2-(3,5-bis-trifluoromethyl-phenyl)-N-methyl-N-[6-(4-methyl-piperazin-1-yl)-4-o-tolyl-pyridin-3-yl]-isobutyramide antagonises foot-tapping behaviour induced in Gerbils with intracerebroventricular (i.c.v.) injections of an NK1 receptor agonist. The dose of this compound calculated to inhibit 50% of the foot-tapping behaviour following oral administration was 0.5 mg/kg.
In vivo the compound of formula Ic antagonises foot-tapping behaviour induced in Gerbils with intracerebroventricular (i.c.v.) injections of an NK1 receptor agonist. The dose of this compound calculated to inhibit 50% of the foot-tapping behaviour following oral administration was 1.5 mg/kg.

In series [4] the target is T1, NK2 receptors (Homo sapiens, UniProt P21452).
T1 sequence (P21452 1-398): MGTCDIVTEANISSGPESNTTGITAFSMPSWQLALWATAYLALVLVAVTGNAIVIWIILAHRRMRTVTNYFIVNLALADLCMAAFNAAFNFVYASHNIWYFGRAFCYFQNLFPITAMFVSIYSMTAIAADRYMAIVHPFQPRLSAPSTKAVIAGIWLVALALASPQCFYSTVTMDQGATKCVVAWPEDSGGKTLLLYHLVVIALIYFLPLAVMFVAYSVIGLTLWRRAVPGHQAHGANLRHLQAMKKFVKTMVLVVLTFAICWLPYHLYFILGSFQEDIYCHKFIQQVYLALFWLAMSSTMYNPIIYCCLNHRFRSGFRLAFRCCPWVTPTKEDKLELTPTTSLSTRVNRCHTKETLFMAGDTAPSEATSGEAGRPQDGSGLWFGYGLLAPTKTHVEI
Kind of series: Selectivity for NK1 compared to NK2 receptors. The series is classed as binding.

In series [5] the test system is motion sickness in the suncus murinus. As to the kind of experiment: Model of motion sickness in suncus murinus. The class given is in vivo. To be noted: po.
Series [6] has as its system over 50 other binding sites. As to the kind of experiment: Selectivity for NK1 compared to over 50 other binding sites.
Series [7] deals with emesis induced in ferrets by emetogens. As to the kind of experiment: Antiemetic test in ferrets. The series is classed as in vivo, ferret. As to the method:
The compound of formula 1a, 2-(3,5-Bis-trifluoromethyl-phenyl)-N-methyl-N-(6-morpholin-4-yl-4-o-tolyl-pyridin-3-yl)-isobutyramide, was also tested as an antiemetic agent in ferrets.
2-(3,5-bis-trifluoromethyl-phenyl)-N-methyl-N-[6-(4-methyl-piperazin-1-yl)-4-o-tolyl-pyridin-3-yl]-isobutyramide was also tested as an antiemetic agent in Ferrets.

The target of series [8] is T2, human NK1 receptor (Homo sapiens, UniProt P25103). Kind of series: Substance P induced Ca2+ influx in CHO cells (FLIPR). The series is classed as cell-based. Also on record: expressed in transfected cells; host or cells: CHO cells. An excerpt: The activity in vitro of the compound of formula 1a was examined by studying its effect on substance P induced Ca^2+ influxes in CHO cells expressing the recombinant human NK1 receptor. In these cells, substance P causes a concentration dependent influx of Ca^2+ which can be measured using FLIPR technology.
T2 sequence (P25103 whole entry): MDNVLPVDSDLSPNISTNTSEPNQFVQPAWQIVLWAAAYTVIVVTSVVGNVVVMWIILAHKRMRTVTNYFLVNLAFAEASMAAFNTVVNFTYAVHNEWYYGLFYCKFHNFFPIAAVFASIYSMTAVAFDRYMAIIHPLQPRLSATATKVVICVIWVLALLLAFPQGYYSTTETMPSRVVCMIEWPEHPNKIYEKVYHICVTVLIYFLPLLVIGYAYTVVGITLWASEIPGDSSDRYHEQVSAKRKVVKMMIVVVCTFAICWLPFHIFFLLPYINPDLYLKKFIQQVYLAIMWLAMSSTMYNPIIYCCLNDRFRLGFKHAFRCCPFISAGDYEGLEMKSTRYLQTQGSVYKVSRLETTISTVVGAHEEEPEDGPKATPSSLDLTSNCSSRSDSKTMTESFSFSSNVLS
The activity of 2-(3,5-bis-trifluoromethyl-phenyl)-N-methyl-N-[^6-(^4-methyl-piperazin-1-yl)-4-o-tolyl-pyridin-3-yl]-isobutyramide in vitro was examined by studying its effect on substance P induced Ca^2+influxes in CHO cells expressing the recombinant human NK1 receptor. In these cells, substance P causes a concentration dependent influx of Ca^2+ which can be measured using FLIPR technology.
The activity of the compound of formula Ic in vitro was examined by studying its effect on substance P induced Ca^2+ influxes in CHO cells expressing the recombinant human NK1 receptor. In these cells, substance P causes a concentration dependent influx of Ca^2+ which can be measured using FLIPR technology.

Series [9] deals with T3, NK3 receptors (Homo sapiens, UniProt P29371).
T3 sequence (P29371 1-465): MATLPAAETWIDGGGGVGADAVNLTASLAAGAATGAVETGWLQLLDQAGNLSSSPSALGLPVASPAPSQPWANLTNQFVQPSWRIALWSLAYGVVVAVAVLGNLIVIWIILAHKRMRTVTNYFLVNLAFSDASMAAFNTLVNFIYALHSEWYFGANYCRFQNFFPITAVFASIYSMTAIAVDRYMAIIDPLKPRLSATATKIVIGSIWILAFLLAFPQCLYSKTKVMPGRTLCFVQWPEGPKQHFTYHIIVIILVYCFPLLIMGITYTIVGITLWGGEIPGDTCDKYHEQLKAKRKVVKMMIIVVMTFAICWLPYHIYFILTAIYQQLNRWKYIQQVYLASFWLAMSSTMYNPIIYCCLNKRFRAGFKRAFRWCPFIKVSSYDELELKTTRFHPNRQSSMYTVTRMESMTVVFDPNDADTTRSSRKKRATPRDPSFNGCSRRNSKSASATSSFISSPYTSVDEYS
As to the kind of experiment: Selectivity for NK1 compared to NK3 receptors. The series is classed as binding.

The target of series [10] is T2, human NK1 receptor. As to the kind of experiment: [3H]substance P binding at human NK1 receptors in CHO cells. To be noted: [3H]substance P 0.6 nM, 60 min room temperature, read-out: affinity (pKi) for the human NK1 receptor (converted). As to the method:
All assays were performed in triplicate in at least2 separate experiments.

The clearance is the rate of elimination divided by the concentration. High values mean efficient removal, low ones inefficient removal. In general, bioavailability refers to the share of a dose that reaches the circulation, judged against a reference dose that is usually intravenous. Low readings indicate little systemic uptake, high ones much systemic uptake. One may read the half-life as how long it takes for the measured level to halve. The term ED50 denotes the dose at which the effect has come halfway, by size or by number of responders. In the case of `Cc1ccccc1-c1cc(N2CCN(C)CC2)ncc1N(C)C(=O)C(C)(C)c1cc(C(F)(F)F)cc(C(F)(F)F)c1` [Ib, 2-(3,5-bis-trifluoromethyl-phenyl)-N-methyl-N-[6-(4-methyl-piperazin-1-yl)-4-o-tolyl-pyridin-3-yl]-isobutyramide], the clearance in [1] came to 3.7 mL/min/kg; in series [2], 9.2 mL/min/kg. The bioavailability in series [1] (po) was determined as 45%; in series [2] (po) it was 75%. Further, the half-life is 24 h in [1] (read-out: terminal half-life (converted)) and 18 h in [2]. Besides, the values for the Vd in series [1] (read-out: volume of distribution) and in series [2] were 5.7 L/kg and 15 L/kg, respectively. In addition, the “total plasma concentration required to completely block the foot-tapping behaviour” value in series [3] was determined as 30 ng/mL. Further, the “dose calculated to inhibit 50% of the foot-tapping behaviour” value in [3] (oral administration) is 0.5 mg/kg. In [4], the “selectivity for the NK1 receptor compared to NK2 receptors” value is recorded as “over 2 orders of magnitude”. Besides, the median effective dose (ED50) in series [5] worked out at 0.2 mg/kg; in series [7] (Mustela putorius, po, read-out: ED50 against apomorphine-induced emesis), 0.1 mg/kg. The “selectivity for the NK1 receptor compared to over 50 other binding sites” value in [6] is on record as “over 2 orders of magnitude”. For the same compound, the “emesis induced by all emetogens (apomorphine, morphine, ipecacuanha, cisplatin, CuSO4)” value in series [7] (0.3 mg/kg p.o., 2 hours before the emetogen) is reported as “completely blocked”. Besides, in series [8] (CHO cells expressing recombinant human NK1 receptor, FLIPR), the “effect on substance P induced Ca2+ influxes” value is “inhibited this effect in a concentration dependent manner”. For the same compound, the “type of antagonism at human recombinant NK1 receptors” value in series [8] (from Ca2+ influx data) is recorded as “competitive antagonist”. For the same compound, in [9], the “selectivity for the NK1 receptor compared to NK3 receptors” value is on record as “over 2 orders of magnitude”. In [10], the Ki is 1 nM.
